The target in one experiment is T1, sheep Mel-1a receptor (Ovis aries, UniProt P48040).
T1 construct: expressed in transfected cells
Put plainly: Inhibition of forskolin-stimulated cAMP accumulation in NIH 3T3 cells stably transfected with sheep receptor cDNA. It is filed as cell-based. As to conditions: for effect of pertussis toxin pretreatment on melatonin inhibition of forskolin-stimulated cAMP: PTX 100 ng/ml, 18 hours, 1 μM melatonin, 10 μM forskolin. As to the method: The 100% value is the mean cAMP value induced with 10 μM forskolin. […] Cells were preincubated with either vehicle or pertussis toxin for 18 hours (PTX: 100 ng/ml; pertussis toxin was purchased from List, Campbell, Calif.). […] Data are the mean plus standard deviation for 3 plates for each treatment.
Transformed NIH 3T3 cells were plated on 35 mm dishes. After forty-eight hours, the cells were washed twice with DMEM, and then incubated with or without drugs (diluted in DMEM) for 10 min at 37° C. At the end of treatment, the medium was aspirated and 1 ml of 50 mM acetic acid was added. The cells were collected, transferred to an Eppendorf tube, boiled for 5 min, and centrifuged (13,750 rpm for 15 min). The supernatant was collected and assayed for cAMP. All determinations were done in triplicate. Cyclic AMP levels were determined in duplicate by radioimmunoassay by standard techniques.

The target of experiment [1] is T2, sheep high-affinity melatonin 1a receptor (Ovis aries, UniProt P48040).
T2 construct: expressed in transfected cells; host or cells: COS-7 cells, transient, pcDNAI, DEAE-dextran
T2 sequence (P48040 whole entry): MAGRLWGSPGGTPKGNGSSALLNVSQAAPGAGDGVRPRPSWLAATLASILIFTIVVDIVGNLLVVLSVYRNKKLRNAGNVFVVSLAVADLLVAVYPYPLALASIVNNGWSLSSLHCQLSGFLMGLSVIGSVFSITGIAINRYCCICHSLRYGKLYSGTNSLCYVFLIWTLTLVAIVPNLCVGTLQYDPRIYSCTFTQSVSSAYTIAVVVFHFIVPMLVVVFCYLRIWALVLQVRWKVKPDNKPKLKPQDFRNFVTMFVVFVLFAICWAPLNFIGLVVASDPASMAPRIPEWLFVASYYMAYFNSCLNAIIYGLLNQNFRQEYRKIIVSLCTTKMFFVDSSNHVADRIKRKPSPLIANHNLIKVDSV
Put plainly: 125I-melatonin saturation and competition binding, whole COS-7 cells transfected with sheep receptor cDNA. The text has this: (§1) Data shown are representative of three experiments. […] The data shown are representative of at least three experiments.
For ligand binding studies, the sheep receptor cDNA (SEQ ID NO:3) in pcDNAI was introduced into COS-7 cells using the DEAE-dextran method (Cullen, B. R. Methods Enzymol. (1987) 152:684-704). Approximately two to three days after transfection, cell culture medium was removed, the cultures dishes were washed with PBS, and the cells were harvested.
The cells were then pelleted (2500 rpm; 10 min, 4° C.) and stored at −80° C. Whole cell binding studies were performed by thawing the cells and resuspending them in binding buffer (50 mM Tris-HCl, pH 7.4, with 5 mM MgCl2) at a concentration of 200-500 μg protein/ml. The cell suspension was incubated with ^125I-Mel with or without drugs in a total reaction volume of 0.2 ml binding buffer; the suspension as incubated in a shaker bath for 1.5 hr at 25° C. All determinations were done in either duplicate or triplicate. Protein measurements were performed using the Pierce BCA Protein Assay. Binding data were analyzed by computer using the LIGAND Program of Munson and Rodbard (1980).

The target in experiment [2] is T3, Xenopus high-affinity melatonin receptor (Xenopus laevis, UniProt P49219).
T3 sequence (P49219 1-420): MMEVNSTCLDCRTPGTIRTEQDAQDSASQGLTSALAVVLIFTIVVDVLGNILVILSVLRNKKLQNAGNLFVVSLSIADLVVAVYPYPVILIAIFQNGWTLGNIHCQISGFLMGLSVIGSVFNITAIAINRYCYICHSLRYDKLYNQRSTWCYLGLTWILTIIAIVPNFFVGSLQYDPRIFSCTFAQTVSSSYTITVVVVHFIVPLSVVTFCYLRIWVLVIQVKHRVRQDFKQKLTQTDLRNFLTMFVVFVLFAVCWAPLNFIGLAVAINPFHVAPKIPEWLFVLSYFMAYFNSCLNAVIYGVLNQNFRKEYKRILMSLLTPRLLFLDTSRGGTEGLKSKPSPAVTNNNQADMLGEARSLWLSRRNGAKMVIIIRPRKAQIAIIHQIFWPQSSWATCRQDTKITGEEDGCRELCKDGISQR
Nature of the experiment: 125I-melatonin saturation and competition binding, whole COS-7 cells transiently expressing Xenopus receptor cDNA. Further details: expressed in transfected cells; host or cells: COS-7 cells, transient, pcDNAI. As to the method: Three days after transfection, medium was removed, the culture dishes were washed with PBS, and the cells were harvested. The cells were then pelleted (2500 rpm; 10 min, 4° C.) and stored at −80° C. Whole cell binding studies were performed by thawing the cells and resuspending them in binding buffer (50 mM Tris-HCl, pH 7.4, with 5 mM MgCl2) at a concentration of 456 μg protein 1 ml. […] Protein determinations were performed using the Pierce BCA Protein Assay (The Pierce Chemical Co., Rockford, Ill.). Binding data were analyzed by computer using the LIGAND Program of Munson and Rodbard ((1980) supra).
(§2) The Bmax value using the whole cell binding assay was 67±7 fmol/mg of protein.

Experiment [3] addresses T4, human high-affinity melatonin 1a receptor (Homo sapiens, UniProt P48039).
T4 construct: expressed in transfected cells; host or cells: COS-7 cells, transient, pcDNAI
Put plainly: 125I-melatonin saturation and competition binding, COS-7 cells transfected with complete human Mel-1a receptor cDNA. As to conditions: 100 pM 125I-Mel, one-site model.
Text: as §1

Another experiment has as its target T5, human Mel-1b receptor (Homo sapiens, UniProt P49286).
T5 construct: expressed in transfected cells; host or cells: COS-1 cells, transient, pcDNA3; crude membrane homogenates
T5 sequence (P49286 1-362): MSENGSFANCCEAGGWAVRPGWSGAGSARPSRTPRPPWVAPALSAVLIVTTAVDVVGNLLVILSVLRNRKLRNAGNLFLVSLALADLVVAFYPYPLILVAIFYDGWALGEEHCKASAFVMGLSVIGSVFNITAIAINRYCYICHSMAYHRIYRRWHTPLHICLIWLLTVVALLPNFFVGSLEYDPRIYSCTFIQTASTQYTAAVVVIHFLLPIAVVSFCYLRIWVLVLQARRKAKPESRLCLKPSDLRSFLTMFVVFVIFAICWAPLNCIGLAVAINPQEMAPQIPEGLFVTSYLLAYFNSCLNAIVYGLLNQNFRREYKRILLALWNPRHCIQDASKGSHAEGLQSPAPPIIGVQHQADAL
Put plainly: 125I-Mel saturation and competition binding, membranes of COS-1 cells transfected with human Mel-1b receptor cDNA. As to conditions: for inhibition of specific 125I-Mel binding: micromolar concentrations, human Mel-1b; for Ki: 200 pM 125I-Mel, mean ± SE of 3-5 experiments; for Ratio (Mel-1a/Mel-1b): ratio of Ki values. The protocol: Inset: Scatchard plot of saturation data. […] Data shown are representative of five experiments.
(§3) The data shown are mean values of three to five experiments for each drug.
Binding and pharmacological properties of the human Mel-1b receptor were examined by transiently expressing the receptor cDNA in COS-1 cells.
(§4) Expression studies were performed as follows. COS-1 and NIH 3T3 cells were grown as monolayers in Dulbeccols modified Eagle's medium (DMEM) supplemented with 10% fetal calf serum, penicillin (50 U/ml), and streptomycin (50 μg/ml), in 5% CO2 at 37° C. […] Three days after transfection, medium was removed, and the dishes were washed with PBS. The cells were harvested in Hank's balanced salt solution and centrifuged (1400×g; 10 min, 4° C.). The resultant pellets were stored at −80° C. Crude membrane homogenates were prepared by thawing the pellets on ice and resuspending them in TME buffer (pH 7.4) consisting of 50 mM Tris base, 12.5 mM MgCl2, 1 mM EDTA, and supplemented with 10 μg/ml aprotinin and leupeptin, and 100 μM phenylmethylsulfonylfluoride. The cells were then homogenized using a dounce homogenizer and centrifuged (45,000×g; 15 min at 4° C.). The resulting pellet was resuspended with a dounce homogenizer in TME and frozen at […] in aliquots.
(§5) Incubations were initiated by the addition of the membrane preparation and were conducted at 37° C. for 60 min. […] All determinations were done in either duplicate or triplicate.
(§6) Protein measurements were performed by the method of Bradford (Bradford, M. M. (1976) Anal. Biochem. 72, 248-254), using bovine serum albumin as the standard.
(§7) For comparison, binding and pharmacology of COS-1 cells transiently expressing the human Mel-1a receptor were assessed in parallel.

For experiment [4], the target named is T3, Xenopus high-affinity melatonin receptor. Nature of the experiment: Inhibition of forskolin-stimulated cAMP accumulation in CHO cells stably transfected with Xenopus receptor cDNA. It is filed as cell-based. Further details: expressed in transfected cells. As to the method: The 100% value is the mean cAMP value induced with 10 μM forskolin.
Transformed CHO cells were plated on 35 mm culture dishes. After 48 hours, the cells were washed twice with Ham's F-12 (Life Technologies, Bethesda, Md.). […] Following treatment, the medium was aspirated and 1 ml of 50 mM acetic acid was added to the culture dish. The cells were collected, transferred to an Eppendorf tube, boiled for 5 min, and centrifuged (13,750 rpm for 15 min). The supernatant was collected and assayed for cAMP. All determinations were performed in triplicate. Cyclic AMP levels were determined in duplicate by radioimmunoassay (New England Nuclear, Boston, Mass.).
In general terms: cAMP levels reflect the balance of adenylyl cyclase and phosphodiesterase activity.

A further experiment has as its system human SCN. As to conditions: quantitative 125I-Mel autoradiography, Reppert et al. 1988; cited from earlier work.
For a further experiment, the target named is mouse Mel-1a receptor (Mus musculus, UniProt Q61184, F119L/I348L/K349P/L29M/L347F). As to conditions: COS-7 cells; comparable to sheep and human Mel-1a receptors.
Sequence of mouse Mel-1a receptor (Q61184 whole entry L29M/F119L/L347F/I348L/K349P): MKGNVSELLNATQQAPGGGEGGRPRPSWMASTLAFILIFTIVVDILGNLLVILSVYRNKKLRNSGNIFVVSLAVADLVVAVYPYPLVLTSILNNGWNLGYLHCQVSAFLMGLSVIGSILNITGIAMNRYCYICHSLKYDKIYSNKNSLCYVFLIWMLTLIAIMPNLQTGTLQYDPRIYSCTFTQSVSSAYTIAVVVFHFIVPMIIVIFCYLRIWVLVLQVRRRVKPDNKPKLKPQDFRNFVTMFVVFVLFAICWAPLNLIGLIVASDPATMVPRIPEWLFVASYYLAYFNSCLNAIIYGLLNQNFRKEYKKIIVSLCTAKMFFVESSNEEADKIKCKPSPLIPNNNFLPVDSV
The subject of experiment [5] is mock-transfected COS-7 cells. Put plainly: 125I-melatonin binding in mock-transfected COS-7 cells.
Text: as §2

The target in another experiment is T6, human Mel-1a receptor (Homo sapiens, UniProt P48039).
T6 construct: expressed in transfected cells; host or cells: COS-1 cells, transient, pcDNA3; crude membrane homogenates
T6 sequence (P48039 whole entry): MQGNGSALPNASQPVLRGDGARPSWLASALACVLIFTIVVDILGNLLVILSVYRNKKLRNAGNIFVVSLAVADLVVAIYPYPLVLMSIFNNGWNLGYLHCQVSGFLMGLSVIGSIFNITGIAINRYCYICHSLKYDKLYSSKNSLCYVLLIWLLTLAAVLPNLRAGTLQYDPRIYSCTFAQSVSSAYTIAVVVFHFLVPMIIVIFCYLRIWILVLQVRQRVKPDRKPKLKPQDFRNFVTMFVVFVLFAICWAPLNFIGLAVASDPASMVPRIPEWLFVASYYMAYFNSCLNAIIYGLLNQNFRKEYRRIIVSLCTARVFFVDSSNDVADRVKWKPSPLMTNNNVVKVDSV
Put plainly: 125I-Mel saturation and competition binding, membranes of COS-1 cells transfected with human Mel-1a receptor cDNA. As to conditions: 100 pM 125I-Mel, mean ± SE of 3-5 experiments. As to the method: as §3, §4, §5, §6, §7

[6] abbreviates: 100 pM 125I-Mel, COS-7 cells, sheep receptor, one-site model, read-out: Ki, competition for 125I-Mel binding.
The mark [7] stands for this setting: 100 pM 125I-melatonin, COS-7 cells, Xenopus receptor, representative of three experiments, read-out: Ki, competition for 125I-melatonin binding.

The values that follow come from patent US7081349B1 (The General Hospital Corporation, priority 1994, dated 2006).

Read-outs that look alike come from different tables or passages of the source.

T4 sequence (P48039 whole entry): as above
T1 sequence (P48040 whole entry): as the sequence (P48040 whole entry) above

Regarding Pertussis toxin, the “effect of pertussis toxin pretreatment on melatonin inhibition of forskolin-stimulated cAMP” value on sheep Mel-1a receptor is given as “completely abolished”; at sheep Mel-1a receptor (listed as pertussis toxin), “blocks”.
For `COc1cc2c(CCNC(C)=O)c[nH]c2cc1O` [6-hydroxymelatonin], the Ki came out at 3 nM in experiment [1] (setting [6]), 20 nM in experiment [2] (setting [7]) and 2 nM in [3].
Regarding `COc1cc2nc(N3CCN(C(=O)c4ccco4)CC3)nc(N)c2cc1OC` [prazosin], the “inhibition of specific 125I-Mel binding” value at human Mel-1b receptor is given as “did not inhibit”.
As for `COc1ccc2[nH]cc(CCNC(C)=O)c2c1` [melatonin], the inhibition at 0.01 µM in experiment [4] (CHO, read-out: maximal inhibition of the mean forskolin-stimulated cAMP concentration) was found to be 68%. Moreover, the IC50 (as a rule, the midpoint of a concentration-inhibition curve) in experiment [4] (manual curve fitting of FIG. 12, 10 μM forskolin, CHO cells, Xenopus receptor) was approximately 0.8 nM. Besides, in [4] (melatonin 1×10^−6 M, CHO cells stably transfected with vector lacking the Xenopus cDNA), the “inhibition of forskolin-stimulated cAMP increase in vector-only cells” value was “did not inhibit”. Further, the “effect on basal cAMP levels” value in experiment [4] (melatonin alone 1×10^−6 M, stably transfected CHO cells) is “not to alter basal cAMP levels”; on sheep Mel-1a receptor (stably transfected NIH 3T3 lines, sheep receptor) it was “did not alter basal cAMP levels”. For the same compound, the affinity result with human SCN is given as “high affinity”. For the same compound, the “inhibition of forskolin-stimulated cAMP accumulation in vector-only cells” value against sheep Mel-1a receptor (melatonin 1 μM, NIH 3T3 cells with pcDNAI NEO lacking the sheep receptor cDNA) is recorded as “did not inhibit”. Moreover, in experiment [2] (setting [7]), the Ki was found to be 1.3 nM. Also, the binding affinity entry at mouse Mel-1a receptor is “high affinity”.
With `COc1ccc2[nH]c([125I])c(CCNC(C)=O)c2c1` [^125I-melatonin, 2-[^125I]-iodomelatonin], the “specific binding of 125I-melatonin” value in experiment [5] was “No specific binding”.
Take `NCCc1c[nH]c2ccc(O)cc12` [5-HT, 5-hydroxytryptamine]: the “inhibition of specific 125I-Mel binding” value at human Mel-1b receptor is “did not inhibit”. Also, the affinity result in the experiment on human SCN is “very low affinity”. The Ki in [1] (setting [6]) is more than 100000 nM; in [2] (setting [7]) it was more than 100000 nM; at human Mel-1a receptor, more than 10000 nM; in [3], more than 100000 nM.
For the compound `CC(=O)NCCc1c[nH]c2ccc(O)cc12` [NAS, N-acetyl-5-hydroxytryptamine], the Ki on human Mel-1b receptor turned out to be 595 ± 127 nM; in experiment [1] (setting [6]), 140 nM; in experiment [2] (setting [7]) it was 2000 nM; at human Mel-1a receptor, 986 ± 137 nM; in [3] it was 170 nM. Also, the “Ratio (Mel-1a/Mel-1b)” value on human Mel-1b receptor was 1.6.
As for `COc1ccc2[nH]c(-c3ccccc3)c(CCNC(C)=O)c2c1` [2-phenylmelatonin], on human Mel-1b receptor, the Ki is 0.26 ± 0.06 nM and the “Ratio (Mel-1a/Mel-1b)” value was 0.8. Moreover, the Ki on human Mel-1a receptor turned out to be 0.21 ± 0.06 nM.
With `COc1ccc2[nH]c(I)c(CCNC(C)=O)c2c1` [2-iodomelatonin], the values for the Ki in experiment [1] and in [2] were 0.037 nM and 0.11 nM, respectively.
On to `COc1ccc2[nH]c(I)c(CCNC(C)=O)c2c1` [^125I-melatonin, 2-[^125I]-iodomelatonin], for which the Ki in experiment [1] (FIG. 14a inset, COS-7 cells, sheep receptor, representative experiment, read-out: Ki value for the sheep receptor from Scatchard plot of saturation data) was determined as 0.036 nM. In addition, the Kd (in general, the free concentration of one partner at which half of the binding sites on the other are occupied at equilibrium, for simple one-to-one binding) in [2] (saturation 5 to 1280 pM, COS-7 cells, Xenopus receptor, n=3 experiments, read-out: Kd of 125I-melatonin (Scatchard analysis)) came to 0.063 nM.
On to `COc1cc2c(CCNC(C)=O)c[nH]c2cc1Cl` [6-chloromelatonin], for which the affinity entry in the experiment on human SCN is given as “high affinity”. The values for the Ki in experiment [1] (setting [6]) and in experiment [2] (setting [7]) were 0.25 nM and 3 nM, respectively.
